Experimental data from patent publication US10845368B2, “Nanoparticles for mitochondrial trafficking of agents” (UNIVERSITY OF GEORGIA RESEARCH FOUNDATION, INC., priority 2012, dated 2020).

What was measured:
3T3-L1 cells = details: 3T3-L1, 100 μM
Method: To examine whether encapsulation of 2,4-DNP in targeted nanoparticles can suppress the induced differentiation of 3T3-L1 preadipocytes at a low dosage that is insufficient to exert cytotoxicity, we continuously exposed 3T3-L1 cells to 1 μM, 4 μM, 25 μM, and 100 μM targeted 2,4-DNP nanoparticles (FIGS. 12A-D and 13) during the differentiation period for 7 d, and evaluated cell viability and intracellular lipid accumulation. Nontargeted 2,4-DNP nanoparticles and free 2,4-DNP were used as controls.

HeLa cells = assay: MTT cytotoxicity assay; format: cell-based, human
From the text: FIGS. 11A-C are bar graphs showing cytotoxicity profiles of targeted LND nanoparticles, nontargeted LND nanoparticles, free LND (A); targeted α-TOS nanoparticles, nontargeted α-TOS nanoparticles, free α-TOS in HeLa cells (B); and empty targeted nanoparticles, and empty nontargeted nanoparticles in HeLa cells (C).
The selectivity and efficiency of LND and α-TOS against cancer cells depend on their ability to target the mitochondria of cells. To evaluate the efficacy of our targeted nanoparticles in delivering LND and α-TOS, we performed MTT assays in HeLa cells. […] Preferential localization in the target organelle accounts for the enhanced cytotoxicity of both LND and α-TOS encapsulated in the targeted nanoparticles.

SMILES | cellular toxicity (3T3-L1 cells) | IC50 (HeLa cells) [µM]
O=[N+]([O-])c1ccc(O)c([N+](=O)[O-])c1 [Free 2,4-DNP, 2,4-dinitrophenol] | demonstrated cellular toxicity | 
Cc1c(C)c2c(c(C)c1OC(=O)CCC(=O)O)CC[C@@](C)(CCC[C@H](C)CCC[C@H](C)CCCC(C)C)O2 [free α-TOS, α-tocopheryl succinate] |  | 0.381 ± 0.005
